The results in this text go back to ChEMBL document CHEMBL4476874, “Compounds for the modulation of myc activity” (2018).

Some results are limits rather than exact numbers.

For the test, the target named is Myc proto-oncogene protein (Homo sapiens, UniProt P01106). The test is described as follows: Inhibition of human c-Myc assessed as reduction in c-Myc/Max/Ebox DNA complex formation using pre-formed complex of c-Myc and biotinylated DNA containing single Ebox-sequence followed by compound addition and further addition of his6-tagged c-Max and incubated for 2 hrs by AlphaScreen assay. Background: Alpha assays give light when donor and acceptor beads are brought close together.
Chain of Myc proto-oncogene protein (P01106 whole entry): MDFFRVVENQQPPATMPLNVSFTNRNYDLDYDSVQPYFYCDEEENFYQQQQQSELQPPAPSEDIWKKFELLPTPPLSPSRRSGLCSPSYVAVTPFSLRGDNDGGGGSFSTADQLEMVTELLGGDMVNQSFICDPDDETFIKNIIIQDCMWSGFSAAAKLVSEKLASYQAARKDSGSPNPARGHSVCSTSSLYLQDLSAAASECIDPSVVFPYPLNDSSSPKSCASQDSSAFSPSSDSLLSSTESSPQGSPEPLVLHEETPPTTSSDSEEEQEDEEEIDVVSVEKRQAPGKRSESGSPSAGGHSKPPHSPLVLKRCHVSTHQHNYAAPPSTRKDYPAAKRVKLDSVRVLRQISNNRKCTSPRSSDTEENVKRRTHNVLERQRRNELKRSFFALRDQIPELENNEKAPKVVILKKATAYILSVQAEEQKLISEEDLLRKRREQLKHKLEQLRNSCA
What is called IC50 is the point on the concentration scale where inhibition reaches its midpoint. For the compound `CC(=O)Nc1ccc(-c2ccc3sc(-c4c(NC(=O)CCNC(C)C)sc5c4CCNC5)nc3c2)cc1`, the IC50 lay in the range of 0.3 to 1 µM.

Consider `COCCNCCC(=O)Nc1sc2c(c1-c1nc3cc(-c4ccc(OC)nc4C)ccc3s1)CCNC2`, for which the IC50 is > 10 µM.

As for `COCCNCCC(=O)Nc1sc2c(c1-c1nc3ccc(-c4cccnc4C)cc3s1)CCNC2`, the IC50 was > 10 µM.

`COCCNCCC(=O)Nc1sc2c(c1-c1nc3cc(-c4ccc5c(=O)[nH]ccc5c4)ccc3s1)CCNC2`: the IC50 was > 10 µM.

As for `COCCNCCC(=O)Nc1sc2c(c1-c1nc3ccc(-c4ccccc4S(C)(=O)=O)cc3s1)CCNC2`, the IC50 was > 10 µM.

With `COCCNCCC(=O)Nc1sc2c(c1-c1nc3ccc(-c4ccnc(C(F)(F)F)c4)cc3s1)CCNC2`, the IC50 was > 10 µM.

For `COCCNCCC(=O)Nc1sc2c(c1-c1nc3ccc(-c4ccc(C(F)(F)F)nc4)cc3s1)CCNC2`, the IC50 was > 10 µM.

For `CNS(=O)(=O)c1ccccc1-c1ccc2nc(-c3c(NC(=O)CCNCCOC)sc4c3CCNC4)sc2c1`, the IC50 is > 10 µM.

Consider `COCCNCCC(=O)Nc1sc2c(c1-c1nc3ccc(-c4cccnc4F)cc3s1)CCNC2`, for which the IC50 is > 10 µM.

For the compound `CC(C)NCCC(=O)Nc1sc2c(c1-c1nc3cc(-c4nn[nH]n4)ccc3s1)CCNC2`, the IC50 was < 0.3 µM.

As to `COCCNCCC(=O)Nc1sc2c(c1-c1nc3ccc(-c4c(C)n[nH]c4C)cc3s1)CCNC2`, the IC50 is > 10 µM.

For `COCCNCCC(=O)Nc1sc2c(c1-c1nc3cc(-c4ccccc4NC(C)=O)ccc3s1)CCNC2`, the IC50 is > 10 µM.

As to `COCCNCCC(=O)Nc1sc2c(c1-c1nc3ccc(-c4ccc5ncnn5c4)cc3s1)CCNC2`, the IC50 was 1 to 10 µM.

In the case of `COCCNCCC(=O)Nc1sc2c(c1-c1nc3ccc(-c4cncc(OC)c4)cc3s1)CCNC2`, the IC50 was 1 to 10 µM.

As to `COCCNCCC(=O)Nc1sc2c(c1-c1nc3ccc(-c4ccc5c(c4)NC(=O)CO5)cc3s1)CCNC2`, the IC50 was > 10 µM.

Regarding `COCCNCCC(=O)Nc1sc2c(c1-c1nc3ccc(-c4ccc(OC)nc4C)cc3s1)CCNC2`, the IC50 was > 10 µM.

Consider `O=C(CC1COCCN1)Nc1sc2c(c1-c1nc3ccccc3s1)CCNC2` (centres undefined), for which the IC50 is 0.3 to 1 µM.

As for `COCCNCCC(=O)Nc1sc2c(c1-c1nc3ccc(-c4cccnc4OC)cc3s1)CCNC2`, the IC50 was 1 to 10 µM.

As to `CC(C)NCCC(=O)Nc1sc2c(c1-c1nc3cc(C#N)ccc3s1)CCNC2`, the IC50 was < 0.3 µM.

For the compound `COCCNCCC(=O)Nc1sc2c(c1-c1nc3cc(-c4ccccc4S(C)(=O)=O)ccc3s1)CCNC2`, the IC50 is > 10 µM.

Regarding `COCCNCCC(=O)Nc1sc2c(c1-c1nc3ccc(-c4ccc(C(=O)OC)nc4)cc3s1)CCNC2`, the IC50 lay in the range of 1 to 10 µM.

Take `COCCNCCC(=O)Nc1sc2c(c1-c1nc3ccc(-c4ccccc4NS(C)(=O)=O)cc3s1)CCNC2`: the IC50 was > 10 µM.

For the compound `COCCNCCC(=O)Nc1sc2c(c1-c1nc3ccc(-c4ccccc4NC(C)=O)cc3s1)CCNC2`, the IC50 is > 10 µM.

In the case of `COCCNCCC(=O)Nc1sc2c(c1-c1nc3cc(-c4ccc(N5CCNCC5)nc4)ccc3s1)CCNC2`, the IC50 was < 0.3 µM.

Take `COCCNCCC(=O)Nc1sc2c(c1-c1nc3cc(-c4ccc5cnn(C)c5c4)ccc3s1)CCNC2`: the IC50 was 0.3 to 1 µM.

With `COCCNCCC(=O)Nc1sc2c(c1-c1nc3cc(-c4ccc5c(c4)NC(=O)C5)ccc3s1)CCNC2`, the IC50 was > 10 µM.

Turning to `COCCNCCC(=O)Nc1sc2c(c1-c1nc3ccc(-c4cnccc4OC)cc3s1)CCNC2`, the IC50 was > 10 µM.

Consider `COCCNCCC(=O)Nc1sc2c(c1-c1nc3ccc(-c4cccc5[nH]ncc45)cc3s1)CCNC2`, for which the IC50 was in the range of 1 to 10 µM.

`COCCNCCC(=O)Nc1sc2c(c1-c1nc3cc(-c4ccnc5[nH]ccc45)ccc3s1)CCNC2`: the IC50 was 1 to 10 µM.

As to `COCCNCCC(=O)Nc1sc2c(c1-c1nc3ccc(-c4cncc(OCCOC)c4)cc3s1)CCNC2`, the IC50 is > 10 µM.

On to `COCCNCCC(=O)Nc1sc2c(c1-c1nc3cc(-c4ccccc4O)ccc3s1)CCNC2`, for which the IC50 lay in the range of 1 to 10 µM.

On to `CCC(C)N(CCC(=O)Nc1sc2c(c1-c1nc3ccccc3s1)CCN(C(C)C)C2)C(=O)OC(C)(C)C` (centres undefined), for which the IC50 is > 10 µM.

For `CC(C)N1CCc2c(sc(NC(=O)CCNc3cccc(O)c3)c2-c2nc3ccccc3s2)C1`, the IC50 is 1 to 10 µM.

`COc1ccc(-c2ccc3sc(-c4c(NC(=O)CCNC(C)C)sc5c4CCNC5)nc3c2)cc1`: the IC50 was < 0.3 µM.

As for `COCCNCCC(=O)Nc1sc2c(c1-c1nc3ccc(-c4ccc(OC(C)C)nc4)cc3s1)CCNC2`, the IC50 is > 10 µM.

With `COCCNCCC(=O)Nc1sc2c(c1-c1nc3ccc(-c4ccncc4Cl)cc3s1)CCNC2`, the IC50 is > 10 µM.

In the case of `COCCNCCC(=O)Nc1sc2c(c1-c1nc3cc(-c4ccc(S(=O)(=O)NC5CC5)cc4)ccc3s1)CCNC2`, the IC50 is > 10 µM.

With `COCCNCCC(=O)Nc1sc2c(c1-c1nc3ccc(-c4cnn(Cc5ccccc5)c4)cc3s1)CCNC2`, the IC50 lay within 1 to 10 µM.

In the case of `COCCNCCC(=O)Nc1sc2c(c1-c1nc3ccc(-c4cnc(OC)nc4)cc3s1)CCNC2`, the IC50 was in the range of 1 to 10 µM.

For `COCCNCCC(=O)Nc1sc2c(c1-c1nc3cc(-c4ccc(C)c(C#N)c4)ccc3s1)CCNC2`, the IC50 is > 10 µM.

Turning to `CC(C)NCCC(=O)Nc1sc2c(c1-c1nc3cc(-n4cncn4)ccc3s1)CCNC2`, the IC50 is < 0.3 µM.

Consider `COCCNCCC(=O)Nc1sc2c(c1-c1nc3ccc(-c4ccc(O)c(F)c4)cc3s1)CCNC2`, for which the IC50 is > 10 µM.

Consider `CNc1ncc2cc(-c3ccc4sc(-c5c(NC(=O)CCNCCOC)sc6c5CCNC6)nc4c3)ccc2n1`, for which the IC50 was > 10 µM.

In the case of `COCCNCCC(=O)Nc1sc2c(c1-c1nc3cc(-c4c(C)n[nH]c4C)ccc3s1)CCNC2`, the IC50 lay in the range of 1 to 10 µM.

For the compound `COCCNCCC(=O)Nc1sc2c(c1-c1nc3cc(-c4ccccc4Cl)ccc3s1)CCNC2`, the IC50 was in the range of 1 to 10 µM.

On to `COCCNCCC(=O)Nc1sc2c(c1-c1nc3c(C)cccc3o1)CCNC2`, for which the IC50 lay in the range of 0.3 to 1 µM.

`COCCNCCC(=O)Nc1sc2c(c1-c1nc3ccc(-c4ccc5c(c4)NC(=O)C5)cc3s1)CCNC2`: the IC50 fell in the range of 1 to 10 µM.

As to `COCCNCCC(=O)Nc1sc2c(c1-c1nc3cc(-c4ccc(OC)c(OC)c4)ccc3s1)CCNC2`, the IC50 is > 10 µM.

As for `Cc1cc(C)c(CNCCC(=O)Nc2sc3c(c2-c2nc4ccccc4s2)CCN(C(C)C)C3)c(=O)[nH]1`, the IC50 fell in the range of 1 to 10 µM.

As to `COCCNCCC(=O)Nc1sc2c(c1-c1nc3ccc(-c4ccc5cnn(C)c5c4)cc3s1)CCNC2`, the IC50 was > 10 µM.

Regarding `COCCNCCC(=O)Nc1sc2c(c1-c1nc3ccc(-c4ccc(S(=O)(=O)NC5CC5)cc4)cc3s1)CCNC2`, the IC50 was > 10 µM.

For the compound `COCCNCCC(=O)Nc1sc2c(c1-c1nc3ccc(-c4cc5cccc(OC)c5[nH]4)cc3s1)CCNC2`, the IC50 lay within 1 to 10 µM.

Regarding `COCCNCCC(=O)Nc1sc2c(c1-c1nc3ccc(-c4ccc(C)c(C#N)c4)cc3s1)CCNC2`, the IC50 is > 10 µM.

Turning to `COCCNCCC(=O)Nc1sc2c(c1-c1nc3ccc(-c4ccc(C(=O)N(C)C)cc4F)cc3s1)CCNC2`, the IC50 lay within 0.3 to 1 µM.

Take `COCCNCCC(=O)Nc1sc2c(c1-c1nc3cc(-c4cccc(C(F)(F)F)c4)ccc3s1)CCNC2`: the IC50 is > 10 µM.

With `COCCNCCC(=O)Nc1sc2c(c1-c1nc3cc(-c4ccc(C)nc4OC)ccc3s1)CCNC2`, the IC50 lay within 1 to 10 µM.

As for `COCCNCCC(=O)Nc1sc2c(c1-c1nc3cc(-c4cc5ccccc5[nH]4)ccc3s1)CCNC2`, the IC50 is > 10 µM.

With `COc1cccc(NCCC(=O)Nc2sc3c(c2-c2nc4ccccc4s2)CCN(C(C)C)C3)c1`, the IC50 fell in the range of 1 to 10 µM.

On to `COCCNCCC(=O)Nc1sc2c(c1-c1nc3cc(-c4cc5cccc(OC)c5[nH]4)ccc3s1)CCNC2`, for which the IC50 lay in the range of 1 to 10 µM.

Regarding `CNS(=O)(=O)c1ccccc1-c1ccc2sc(-c3c(NC(=O)CCNCCOC)sc4c3CCNC4)nc2c1`, the IC50 is > 10 µM.

Turning to `CCOc1ncccc1-c1ccc2nc(-c3c(NC(=O)CCNCCOC)sc4c3CCNC4)sc2c1`, the IC50 is > 10 µM.

Consider `COCCNCCC(=O)Nc1sc2c(c1-c1nc3ccc(-c4ccc(C)nc4OC)cc3s1)CCNC2`, for which the IC50 is > 10 µM.

Consider `O=C(CC1CCCN1)Nc1sc2c(c1-c1nc3ccccc3s1)CCNC2` (centres undefined), for which the IC50 was in the range of 0.3 to 1 µM.

`COCCNCCC(=O)Nc1sc2c(c1-c1nc3ccc(-c4ccnc5[nH]ccc45)cc3s1)CCNC2`: the IC50 is > 10 µM.

As to `COCCNCCC(=O)Nc1sc2c(c1-c1nc3ccc(-c4cccc5cccnc45)cc3s1)CCNC2`, the IC50 is > 10 µM.

`COCCNCCC(=O)Nc1sc2c(c1-c1nc3ccc(-c4c(F)cccc4F)cc3s1)CCNC2`: the IC50 is > 10 µM.

On to `CC(C)NCCC(=O)Nc1sc2c(c1-c1nc3c(NC(=O)c4ccccc4)cccc3s1)CCNC2`, for which the IC50 lay within 1 to 10 µM.

In the case of `COCCNCCC(=O)Nc1sc2c(c1-c1nc3cc(-c4cccc(C(=O)NCCN(C)C)c4)ccc3s1)CCNC2`, the IC50 lay within 0.3 to 1 µM.

As to `COCCNCCC(=O)Nc1sc2c(c1-c1nc3cc(-c4cccc5[nH]ncc45)ccc3s1)CCNC2`, the IC50 lay in the range of 1 to 10 µM.

Take `COCCNCCC(=O)Nc1sc2c(c1-c1nc3ccc(-c4cncc(C#N)c4)cc3s1)CCNC2`: the IC50 fell in the range of 1 to 10 µM.

On to `COCCNCCC(=O)Nc1sc2c(c1-c1nc3cc(-c4cc(F)cnc4OC)ccc3s1)CCNC2`, for which the IC50 was 1 to 10 µM.

As to `COCCNCCC(=O)Nc1sc2c(c1-c1nc3ccc(-c4cnc(N5CCOCC5)nc4)cc3s1)CCNC2`, the IC50 is > 10 µM.

Turning to `COCCNCCC(=O)Nc1sc2c(c1-c1nc3cc(-c4ccccc4)ccc3s1)CCNC2`, the IC50 is 1 to 10 µM.

Turning to `COCCNCCC(=O)Nc1sc2c(c1-c1nc3ccc(-c4cnc(N)c(C(F)(F)F)c4)cc3s1)CCNC2`, the IC50 is > 10 µM.

Regarding `COCCNCCC(=O)Nc1sc2c(c1-c1nc3ccc(-c4ccccc4Cl)cc3s1)CCNC2`, the IC50 is > 10 µM.

Regarding `CC(C)N1CCc2c(sc(NC(=O)CCN3CCc4ccccc4C3)c2-c2nc3ccccc3s2)C1`, the IC50 is > 10 µM.

Consider `COCCNCCC(=O)Nc1sc2c(c1-c1nc3ccc(-c4ccc(N5CCOCC5)nc4)cc3s1)CCNC2`, for which the IC50 is > 10 µM.

Turning to `COCCNCCC(=O)Nc1sc2c(c1-c1nc3c(N4CCCC4)cccc3s1)CCNC2`, the IC50 is < 0.3 µM.

On to `CCOc1ccc(-c2ccc3nc(-c4c(NC(=O)CCNCCOC)sc5c4CCNC5)sc3c2)cn1`, for which the IC50 was 1 to 10 µM.
